Test results reported in publication PMC10674160, “Synthesis and Preclinical Evaluation of Radiolabeled [^103Ru]BOLD-100” (Pharmaceutics, 2023).

Assay: Tissue distribution in CT26 allograft bearing Balb/c mice (ICP-MS for 3a, gamma counting for 3b)
Format: in vivo
Conditions: 30 mg/kg i.v.
Experimental: UV/Vis spectra were recorded on a Hitachi U-2000 Dual Beam spectrophotometer. Sample activities were measured on an ISOMED 2010 dose calibrator. For centrifugation during synthesis, a Fisherbrand^TM Mini-Centrifuge from Fisher Scientific was used. Radioactive organ samples were measured on Perkin Elmer Wizard^2 gamma counter. Non-radioactive organ samples were prepared, and the ruthenium content was quantified with ICP-MS. The exact procedure including instrument information can be found in the Supplementary Materials.
For the evaluation of organ distribution, CT26 cells (5 × 10^5 in serum-free medium) were injected subcutaneously into the right flank of Balb/c mice. Animals were controlled for distress development every day and tumor size was assessed regularly using caliper measurements. CT26 cells were inoculated 10 days prior to drug application. Tumor volume was calculated using the formula: (length × width^2); the tumors reached a size of about 500 mm^3. Animals were treated once intravenously (i.v.) via tail-vein injection with 3a or 3b at a dose of 30 mg/kg (dissolved in 0.9% NaCl, 0.6 mg/100 µL/20 g mouse) and a specific activity of 0.64–1.36 MBq/mg for compound 3b. The mice were anesthetized and sacrificed by cervical fracture 4, 24, 48 and 72 h p.i., with n ≥ 2 (3a) and n ≥ 3 (3b) for each time point. Samples of tumor, liver, kidney, muscle, heart, lung, spleen, pancreas, stomach, colon, small intestine, brain, bone, and blood were collected from each mouse. After clotting at RT, serum was isolated from the collected blood samples by centrifugation at 3000 rpm for 10 min twice and stored together with the collected tissue samples at −20 °C. Finally, the ruthenium content was quantified by ICP-MS in the case of the non-radioactive BOLD-100 (3a) and via gamma counting for [^103Ru]BOLD-100 (3b).
An Agilent 7800 ICP-MS (Agilent Technologies, Tokyo, Japan) was being employed, which was equipped with an Agilent SPS 4 autosampler (Agilent Technologies, Tokyo, Japan) and a MicroMist nebulizer at a sample uptake rate of approx. 0.2 mL/min. The Agilent MassHunter software package (Workstation Software, Version C.01.04, 2018) was used for data evaluation. The instrumental parameters […]
Reference source not found..
Ta ble S1: Instrumental parameters for the ICP-MS measurements […]
Spray chamber Scott double-pass
Spraying chamber temp. 2°C
Nebulizer gas 1.06 L min−1
Auxiliary gas 0.90 L min−1
The instrumental limit of quantification (LOQ) was determined at the start of the measurement by […]
LOQ = blank average + 10*STD
Blank corrections were performed for all the samples. Robustness was ensured by tuning the ICP-MS on a daily basis, by using an internal standard (115In) and measuring calibration standards for each […]
Ultrapure water (18.2 MΩ cm, ELGA Water purification system, Purelab Ultra MK 2, UK or 18.2 MΩ cm, Milli-Q Advantage, Darmstadt, Germany), HNO3 (≥69%, Rotipuran Supra, Carl Roth, Karlsruhe, Germany) and H2O2 (30%, Suprapur, Merck, Darmstadt, Germany) were used for all dilutions for ICP-MS measurements. The Ru standard solution was purchased from Labkings (Hilversum, The Netherlands).
For the digestion, approx. 25–50 mg of each organ sample were weighed into PFA-tubes, with 2 mL HNO3 and 100 µL H2O2 being added. The solutions were then placed on a hot plate and heated up for 6 hours using a temperature program with a maximum temperature of 200 °C. After cooling down, the liquids were transferred directly to 15 mL tubes with the remaining solution being removed from the PFA tubes by washing twice with 4 mL ultrapure water, resulting in a final volume of about 10 mL. By writing down the total weight of the resulting liquid, the dilution factor could be calculated.

[Cl][Ru-]([Cl])([Cl])[Cl].[Na+].c1ccc2[nH]ncc2c1.c1ccc2[nH]ncc2c1 [3a, sodium trans-[tetrachloridobis(indazole)ruthenate(III)]]
%ID/g tissue Blood cells (4 h p.i.): 10.70 ± 4.38 %ID/g tissue
%ID/g tissue Blood cells (24 h p.i.): 3.43 ± 0.83 %ID/g tissue
%ID/g tissue Blood cells (48 h p.i.): 1.96 ± 1.09 %ID/g tissue
%ID/g tissue Blood cells (72 h p.i.): 0.67 ± 0.86 %ID/g tissue
%ID/g tissue Bones (4 h p.i.): 1.08 ± 0.25 %ID/g tissue
%ID/g tissue Bones (24 h p.i.): 0.79 ± 0.20 %ID/g tissue
%ID/g tissue Bones (48 h p.i.): 0.88 ± 0.16 %ID/g tissue
%ID/g tissue Bones (72 h p.i.): 1.12 ± 0.35 %ID/g tissue
%ID/g tissue Brain (4 h p.i.): 0.36 ± 0.19 %ID/g tissue
%ID/g tissue Brain (24 h p.i.): 0.15 ± 0.07 %ID/g tissue
%ID/g tissue Brain (48 h p.i.): 0.10 ± 0.02 %ID/g tissue
%ID/g tissue Brain (72 h p.i.): 0.11 ± 0.00 %ID/g tissue
%ID/g tissue Colon (4 h p.i.): 3.53 ± 1.27 %ID/g tissue
%ID/g tissue Colon (24 h p.i.): 2.58 ± 0.13 %ID/g tissue
%ID/g tissue Colon (48 h p.i.): 1.68 ± 0.58 %ID/g tissue
%ID/g tissue Colon (72 h p.i.): 1.63 ± 0.00 %ID/g tissue
%ID/g tissue Heart (4 h p.i.): 5.81 ± 0.94 %ID/g tissue
%ID/g tissue Heart (24 h p.i.): 3.66 ± 1.31 %ID/g tissue
%ID/g tissue Heart (48 h p.i.): 3.28 ± 0.63 %ID/g tissue
%ID/g tissue Heart (72 h p.i.): 2.37 ± 1.97 %ID/g tissue
%ID/g tissue Kidneys (4 h p.i.): 11.58 ± 1.35 %ID/g tissue
%ID/g tissue Kidneys (24 h p.i.): 10.02 ± 1.09 %ID/g tissue
%ID/g tissue Kidneys (48 h p.i.): 7.34 ± 4.13 %ID/g tissue
%ID/g tissue Kidneys (72 h p.i.): 6.78 ± 0.18 %ID/g tissue
%ID/g tissue Liver (4 h p.i.): 12.90 ± 1.14 %ID/g tissue
%ID/g tissue Liver (24 h p.i.): 9.84 ± 0.60 %ID/g tissue
%ID/g tissue Liver (48 h p.i.): 8.96 ± 3.11 %ID/g tissue
%ID/g tissue Liver (72 h p.i.): 7.90 ± 0.35 %ID/g tissue
%ID/g tissue Lung (4 h p.i.): 8.24 ± 2.06 %ID/g tissue
%ID/g tissue Lung (24 h p.i.): 4.84 ± 0.53 %ID/g tissue
%ID/g tissue Lung (48 h p.i.): 4.64 ± 0.94 %ID/g tissue
%ID/g tissue Lung (72 h p.i.): 4.41 ± 1.94 %ID/g tissue
%ID/g tissue Muscle (4 h p.i.): 0.82 ± 0.18 %ID/g tissue
%ID/g tissue Muscle (24 h p.i.): 0.99 ± 0.28 %ID/g tissue
%ID/g tissue Muscle (48 h p.i.): 0.66 ± 0.16 %ID/g tissue
%ID/g tissue Muscle (72 h p.i.): 0.84 ± 0.02 %ID/g tissue
%ID/g tissue Pancreas (4 h p.i.): 5.14 ± 2.01 %ID/g tissue
%ID/g tissue Pancreas (24 h p.i.): 2.81 ± 0.68 %ID/g tissue
%ID/g tissue Pancreas (48 h p.i.): 3.18 ± 0.85 %ID/g tissue
%ID/g tissue Pancreas (72 h p.i.): 2.19 ± 0.01 %ID/g tissue
%ID/g tissue Serum (4 h p.i.): 24.85 ± 0.85 %ID/g tissue
%ID/g tissue Serum (24 h p.i.): 9.26 ± 1.03 %ID/g tissue
%ID/g tissue Serum (48 h p.i.): 6.29 ± 1.02 %ID/g tissue
%ID/g tissue Serum (72 h p.i.): 1.41 ± 1.56 %ID/g tissue
%ID/g tissue Small intestine (4 h p.i.): 6.38 ± 3.36 %ID/g tissue
%ID/g tissue Small intestine (24 h p.i.): 3.78 ± 0.51 %ID/g tissue
%ID/g tissue Small intestine (48 h p.i.): 3.28 ± 2.02 %ID/g tissue
%ID/g tissue Spleen (4 h p.i.): 4.23 ± 0.68 %ID/g tissue
%ID/g tissue Spleen (24 h p.i.): 4.02 ± 0.71 %ID/g tissue
%ID/g tissue Spleen (48 h p.i.): 4.59 ± 1.57 %ID/g tissue
%ID/g tissue Spleen (72 h p.i.): 3.92 ± 1.93 %ID/g tissue
%ID/g tissue Stomach (4 h p.i.): 2.57 ± 0.29 %ID/g tissue
%ID/g tissue Stomach (24 h p.i.): 2.13 ± 0.17 %ID/g tissue
%ID/g tissue Stomach (48 h p.i.): 1.76 ± 0.77 %ID/g tissue
%ID/g tissue Stomach (72 h p.i.): 1.40 ± 0.01 %ID/g tissue
%ID/g tissue Tumor (4 h p.i.): 4.43 ± 1.20 %ID/g tissue
%ID/g tissue Tumor (24 h p.i.): 8.34 ± 1.36 %ID/g tissue
%ID/g tissue Tumor (48 h p.i.): 7.64 ± 1.78 %ID/g tissue
%ID/g tissue Tumor (72 h p.i.): 5.32 ± 1.22 %ID/g tissue
